Test results published in patent US20240141374A1, “ON DEMAND EXPRESSION OF EXOGENOUS FACTORS IN LYMPHOCYTES” (priority 0001, published 2024).

B1: 3BNC117: human IgG1 monoclonal antibody targeting the CD4 binding site on HIV gp160; expressed in cells from vector AGT112 (protein)
chain 1: MYRMQLLSCIALSLALVTQVQLLQSGAAVTKPGASVRVSCEASGYNIRDYFIHWWRQAPGQGLQWVGWINPKTGQPNNPRQFQGRVSLTRHASWDFDTFSFYMDLKALRSDDTAVYFCARQRSDYWDFDVWGSGTQVTVSSASTKGP
chain 2: MYRMQLLSCIALSLALVTDIQMTQSPSSLSASVGDTVTITCQANGYLNWYQQRRGKAPKLLIYDGSKLERGVPSRFSGRRWGQEYNLTINNLQPEDIATYFCQVYEFVVPGTRLDLKRTVAAP
modifications: constant regions lack entries; misc_feature 1..441 3BNC117 Heavy Variable Chain (with IL-2 secretory signal); misc_feature 1..369 3BNC117 Light Variable Chain (with IL-2 secretory signal)
notes: expressed in cells from vector AGT112
B2: AGT103: Vector encoding inhibitory RNA sequences targeting CCR5 and HIV Vif/Tat with EF-1α promoter (SEQ ID NO: 78) (nucleic acid)
DNA: CCGGTGCCTAGAGAAGGTGGCGCGGGGTAAACTGGGAAAGTGATGTCGTGTACTGGCTCCGCCTTTTTCCCGAGGGTGGGGGAGAACCGTATATAAGTGCAGTAGTCGCCGTGAACGTTCTTTTTCGCAACGGGTTTGCCGCCAGAACACAGGTAAGTGCCGTGTGTGGTTCCCGCGGGCCTGGCCTCTTTACGGGTTATGGCCCTTGCGTGCCTTGAATTACTTCCACGCCCCTGGCTGCAGTACGTGATTCTTGATCCCGAGCTTCGGGTTGGAAGTGGGTGGGAGAGTTCGAGGCCTTGCGCTTAAGGAGCCCCTTCGCCTCGTGCTTGAGTTGAGGCCTGGCCTGGGCGCTGGGGCCGCCGCGTGCGAATCTGGTGGCACCTTCGCGCCTGTCTCGCTGCTTTCGATAAGTCTCTAGCCATTTAAAATTTTTGATGACCTGCTGCGACGCTTTTTTTCTGGCAAGATAGTCTTGTAAATGCGGGCCAAGATCTGCACACTGGTATTTCGGTTTTTGGGGCCGCGGGCGGCGACGGGGCCCGTGCGTCCCAGCGCACATGTTCGGCGAGGCGGGGCCTGCGAGCGCGGCCACCGAGAATCGGACGGGGGTAGTCTCAAGCTGGCCGGCCTGCTCTGGTGCCTGGCCTCGCGCCGCCGTGTATCGCCCCGCCCTGGGCGGCAAGGCTGGCCCGGTCGGCACCAGTTGCGTGAGCGGAAAGATGGCCGCTTCCCGGCCCTGCTGCAGGGAGCTCAAAATGGAGGACGCGGCGCTCGGGAGAGCGGGCGGGTGAGTCACCCACACAAAGGAAAAGGGCCTTTCCGTCCTCAGCCGTCGCTTCATGTGACTCCACGGAGTACCGGGCGCCGTCCAGGCACCTCGATTAGTTCTCGAGCTTTTGGAGTACGTCGTCTTTAGGTTGGGGGGAGGGGTTTTATGCGATGGAGTTTCCCCACACTGAGTGGGTGGAGACTGAAGTTAGGCCAGCTTGGCACTTGATGTAATTCTCCTTGGAATTTGCCCTTTTTGAGTTTGGATCTTGGTTCATTCTCAAGCCTCAGACAGTGGTTCAAAGTTTTTTTCTTCCATTTCAGGTGTCGTGATGTACAAGGTATATTGCTGTTGACAGTGAGCGACTGTAAACTGAGCTTGCTCTACTGTGAAGCCACAGATGGGTAGAGCAAGCACAGTTTACCGCTGCCTACTGCCTCGGACTTCAAGGGGCTTCCCGGGCATCTCCATGGCTGTACCACCTTGTCGGGGGATGTGTACTTCTGAACTTGTGTTGAATCTCATGGAGTTCAGAAGAACACATCCGCACTGACATTTTGGTATCTTTCATCTGACCAGCTAGCGGGCCTGGCTCGAGCAGGGGGCGAGGGATTCCGCTTCTTCCTGCCATAGCGTGGTCCCCTCCCCTATGGCAGGCAGAAGCGGCACCTTCCCTCCCAATGACCGCGTCTTCGTC
modifications: misc_feature 1..1469 AGT103

How the values were obtained:
HIV NL43-GFP [1] = experiment: HIV NL43-GFP infection of CD8-depleted, CD3/CD28-stimulated PBMC transduced with lentiviral vector encoding 3BNC117 (Example 3); assay type: cell-based; settings: day six, FIG. 6
Excerpt: Method: On day 0, PBMC were depleted of CD8+ T cells and then stimulated with TransAct (CD3/CD28 beads) (MiltenyiBiotec). On day 1, the PBMC were transduced with a lentiviral vectors expressing the broadly neutralizing antibody (bNAb) against HIV (SEQ ID NO:4; AGT112). The components of the vectors are described in Table 2. The AGT112 vector (SEQ ID NO: 4) contains a CMV promoter (SEQ ID NO: 13) that drives expression of a 3BNC117 antibody sequence that contains an IL-2 secretory sequence (SEQ ID NO: 74 (3BNC117 heavy variable chain (with IL-2 secretory sequence)) and SEQ ID NO: 75 (3BNC117 light variable chain (with IL-2 secretory sequence)). The IL-2 secretory sequence is SEQ ID NO: 11.
On day two (2), the PBMC were then infected with HIV NL43-GFP. On day three, cells were washed three times. On day six, HIV-infected GFP positive cells were measured. This protocol is shown in FIG. 5 but here LV-3BNC117 was substituted for LV-VRC01.

HIV NL43-GFP [2] = experiment: HIV NL43-GFP infection of PBMC transduced with sCD4 lentiviral vectors (Example 4); assay type: cell-based; settings: columns NL43+sCD4 / NL43-sCD4-Ig / NL43-Saquinavir
Excerpt: Method: On day 0, PBMC were depleted of CD8+ T cell and then stimulated with TransAct (CD3/CD28 beads) (MiltenyiBiotec). On day 1, PBMC were transduced with lentiviral vectors expressing sCD4 (SEQ ID NO: 8 (AGT116) and SEQ ID NO: 10 (AGT117)).
The components of the vectors are described in Table 2. The AGT116 vector (SEQ ID NO: 8) contains a sCD4 sequence (SEQ ID NO: 7) and an EF-1α promoter (SEQ ID NO: 14) upstream of the sCD4 sequence. The AGT117 vector (SEQ ID NO: 10) contains a sCD4-IgG1 Fc sequence (SEQ ID NO: 9) and an EF-1α promoter (SEQ ID NO: 14) upstream of the sCD4-IgG1 Fc sequence.
On day 2, the PBMC were infected with HIV NL43-GFP. On day 3, the cells were washed three times. Cells were then […]. On day 6, HIV-infected GFP positive cells were measured.

[3] = system: HIV recombinant strain NL43 that expresses GFP; experiment: HIV NL43-GFP infection of primary CD4 T cells transduced with AGT111 at various MOI (Example 7); assay type: cell-based; settings: 200 nM saquinavir
Procedure: Method: CD4 T cells were separated by negative selection and stimulated for 1 day with TransAct (CD3/CD28 beads) (Miltenyi Biotec) plus IL-2 (30 U/mL) (Thermo Fisher Scientific) and then transduced with lentivirus vector AGT111 (SEQ ID NO: 2) at various MOI.
One day later, cells were infected with 1 MOI of HIV recombinant strain NL43 that expresses GFP. […] As a control, HIV infected cells were treated with 200 nM saquinavir. At the end of the culture, cells were collected and analyzed by flow cytometry for GFP expression and with an APC anti-CD4 antibody. If the CD4 cell expresses GFP, it was infected by HIV.

[4] = system: HIV Gag-specific CD4 T cells; experiment: Antibody (IgG Fc) expression by HIV Gag-specific CD4 T cells after peptide stimulation (Example 5); assay type: cell-based, human; settings: for cells positive for IgG Fc: MOI 5
Procedure: Method: To measure antibody expression by HIV Gag-specific CD4 T cells, HIV positive human peripheral blood mononuclear cells (PBMCs) were separated with Ficoll-Paque PLUS (GE Healthcare, Cat: 17-1440-02). Separated PBMCs (1×10^7) were stimulated with PepMix™ HIV (GAG) Ultra (Cat: PM-HIV-GAG, JPT Peptide Technologies) in 1 mL medium in a 24-well plate for 18 hours. CD8 T, γδ, NK, and B cells were depleted with PE labeled specific antibodies and anti-PE microbeads. The negatively selected cells were cultured at 2×10^6/mL in TexMACS GMP medium (Cat: 170-076-309, Miltenyi Biotec) containing IL7 (170-076-111, Miltenyi Biotec), IL15 (170-076-114, Miltenyi Biotec) and saquinavir (Cat: 4658, NIH AIDS Reagent Program). The lentivirus vector AGT111 (SEQ ID NO: 2) encoding anti-HIV antibody VRC01 or AGT112 (SEQ ID NO: 4) encoding anti-HIV antibody 3BNC117 was added 24 hours later at a multiplicity of infection (MOI) of 5.
Fresh medium containing IL7, IL15, and saquinavir was added every 2-3 days during cell expansion. The starting concentration of IL7 and IL15 was 10 ng/mL. On day 12-16, 2-3×10^6 cells were collected for peptide stimulation. The intracellular expression of IFNγ and IgG Fc was detected with a PE anti-IFNγ antibody and an APC anti-IgG1 Fc antibody (Biolegend).

[5] = system: HIV recombinant strain NL43 that expresses GFP; experiment: HIV NL43-GFP infection of primary CD4 T cells transduced with AGT103 or AGT118 (Example 17); assay type: cell-based
Excerpt: Method: CD4 T cells were separated by negative selection and stimulated for 1 day with TransAct (CD3/CD28 beads) (Miltenyi Biotec) plus IL-2 (30 U/mL) (Thermo Fisher Scientific) and then transduced with lentivirus AGT103 (SEQ ID NO: 78) or AGT118 (SEQ ID NO: 80) at a MOI of 5. The AGT103 vector (SEQ ID NO: 78) contains an EF-1α promoter (SEQ ID NO: 14) that drives expression of the miR30-CCR5/miR21-Vif/mir185-Tat microRNA cluster sequence (SEQ ID NO: 65) (miR30-CCR5/miR21-Vif/miR185-Tat microRNA cluster sequence). The miR30-CCR5 sequence is SEQ ID NO: 62. The miR21-Vif sequence is SEQ ID NO: 63. The miR185-Tat sequence is SEQ ID NO: 64. The AGT118 vector (SEQ ID NO: 80) contains an EF-1α promoter (SEQ ID NO: 14) that drives expression of sCD4(D1+D2)-IgG1 Fc (SEQ ID NO: 9) and the miR30-CCR5/miR21-Vif/miR185-Tat microRNA cluster sequence (SEQ ID NO: 65).
One day later, cells were infected with 1 MOI of HIV recombinant strain NL43 that expresses GFP. After 24 hours, CD3/CD28 beads, lentivirus and HIV were removed by washing 3 times with PBS and cultured in RPMI 1640 medium (Thermo Fisher Scientific) containing 10% FBS (Gemini Bio) and 1% Pen-Strep (Thermo Fisher Scientific) with IL-2 (30 U/mL) in a 37° C. incubator at 5% C02 for 7 days with medium supplementation as needed. At the end of the culture, cells were collected and analyzed by flow cytometry. […]

Row | Molecule | GFP positive cells (HIV NL43-GFP [1]; NY025 donor) [%] | GFP positive cells (HIV NL43-GFP [1]; NY026 donor) [%] | percent of GFP positive cells (HIV NL43-GFP [2]; FIG. 8A bottom row) [%] | percent of GFP positive cells (HIV NL43-GFP [2]; FIG. 8B bottom row) [%] | percentage of GFP positive cells ([3]; day 5) [%] | percentage of GFP positive cells ([3]; day 7) [%] | percentage of GFP positive cells ([3]; day 9) [%] | increase in fluorescence intensity of IgG relative to DMSO treated cells ([4]; Gag PepMix vs DMSO) | cells positive for IgG Fc ([4]; stimulation with Gag PepMix on day 12) [%] | cells positive for IgG Fc ([4]; treated with DMSO (no peptide)) [%] | cells HIV positive ([5]; primary CD4 T cells, MOI of 5) [%] | decrease in HIV infection ([5]; vs control treated cells) [%]
1 | CC(C)(C)NC(=O)[C@@H]1C[C@@H]2CCCC[C@@H]2CN1C[C@@H](O)[C@H](Cc1ccccc1)NC(=O)[C@H](CC(N)=O)NC(=O)c1ccc2ccccc2n1 [Saquinavir, saquinavir] | 0.025 | 2.43E-3 | 0.017 | 0.026 | 0.19 | 0.22 | 0.24 | – | – | – | – | –
2 | B1 | 1.79 | 0.30 | – | – | – | – | – | approximately 10 fold | 1.58 | 0.13 | – | –
3 | B2 | – | – | – | – | – | – | – | – | – | – | 0.86 | 75.6
